# Source: US20250186503A1, “METHODS AND COMBINATIONS FOR TREATMENT AND T CELL MODULATION” (Juno Therapeutics, Inc., priority 2018, published 2025)
# Legend:
# [1] = given for five days followed by a two day rest period (5/7 days), subjects with DLBCL; cited from earlier work
# [2] = test system: CD19 directed CAR-expressing T cells; assay: Antigen-dependent cytokine production by CD19 directed CAR-expressing T cells; format: cell-based, human; settings: compared to vehicle control or equimolar concentrations of lenalidomide
# Excerpt: […]. […] Data represents the mean+/−S.D. across 3 experiments.
# [3] = test system: phosphorylated STAT5; assay: Phosphorylated STAT5 in CAR T cells incubated with conditioned supernatants; format: cell-based, human; settings: both concentrations used
# Experimental: Conditioned supernatants from stimulated CAR T cultures were harvested after overnight treatment and incubated with freshly thawed CAR T cells from three donors alone or in the presence of a blocking IL-2 antibody. After short term stimulation, CAR T cells were then assessed by flow cytometry for phosphorylated STAT5.
# [4] = test system: RL CD19+ tumor cells; assay: Acute cytolytic activity, anti-CD19 CAR T cells co-cultured with RL CD19+ tumor cells; format: cell-based
# Experimental: Acute cytolytic activity was measured by tumor cell number over time.
# [5] = test system: IMiD/CELMoD resistant cell line DF-15R; assay: Rescue of chronically stimulated anti-BCMA CAR T cells rechallenged with DF-15R; format: cell-based; settings: rechallenge with DF-15R
# Experimental: Cytolytic activity and cytokine production following the rechallenge were assessed as described above.
# [6] = test system: K562.CD19, Raji cells or Granta-519 cells; assay: Cytolytic activity against CD19+ tumor cells after concurrent Compound 2 during chronic stimulation; format: cell-based, human; settings: 0.001 μM or 0.01 μM concurrent; E:T 1:1
# Excerpt: The assessed CD19+tumor cells included K562 cells transduced with CD19 (K562.CD19), Raji cells or Granta-519 cells.
# [7] = test system: anti-BCMA CAR+ T cells; assay: T cell markers on anti-BCMA CAR+ T cells stimulated with BCMA-conjugated beads; format: cell-based, human
# Experimental: Approximately 1.5×10^6 CAR+ T cells were added to wells of a 12-well plate and were incubated with beads from a 200 μg/ml BCMA-conjugated bead composition at a ratio of CAR+ T cell to BCMA-conjugated bead of 1:0.3, 1:1 or 1:3 (approximately 0.5×10^6, 1.5, 10^6, and 4.5×10^6 beads per well, respectively). As controls, 5 μg/mL anti-CD3 antibody was coated to wells (sub-optimal concentration for stimulation) or cells were seeded in the absence of any agent (no stimulation control). […] The cells were incubated for four days and then analyzed by flow cytometry for surface expression of CD4, CD8, Tim3, PD-1, CD25 and CD69.
# In a further experiment, anti-BCMA CAR-T cell compositions produced substantially as described in Example 1 were plated in 96-well plates at a density of 5×10^5 cells per well. The tested CAR-T cell compositions contained, on average, approximately 45% anti-BCMA CAR+ cells at plating. Cells from each composition were incubated for 18 hours in the presence of beads from a 5 μg/ml, 50 μg/ml, or 200 μg/ml BCMA-conjugated bead composition at a ratio of 1:1 T cells to beads. As a control, cells were incubated with anti-CD3/anti-CD28 antibody-conjugated beads (positive control) or no added agent (negative control). […] Following the incubation, the cells were treated with reagents that allowed for extracellular and intracellular antibody staining by flow cytometry for the transcription factors Blimp1, EOMES, GATA-3, ikaros, helios, and Tbet and markers CD25, CD31, and PD-1.
# [8] = test system: anti-CD19 CAR+ T cells; assay: IL-10 in supernatants of anti-CD19 CAR+ T cells incubated with K562-CD19 cells; format: cell-based, human; settings: E:T 3:1 or 9:1, 24 hours
# [9] = test system: RPMI-8226; settings: read-out: sensitivity to lenalidomide; cited from earlier work
# [10] = test system: RPMI-8226; assay: 3D myeloma model (reconstructed bone marrow embedded with RPMI-8226); format: cell-based, human; settings: 1.0 μM
# Excerpt: To assess cell function in the context of a three-dimensional (3-D) human BCMA-expressing tissue microenvironment, a reconstructed bone marrow (rBone™) (z[…], San Jose, CA) was embedded with BCMA-expressing RPMI-8226.
# After 2 or 7 days, cells were isolated and assessed by flow cytometry for surface expression of CD3, CD25, CD4, and CD8.
# [11] = test system: anti-BCMA CAR T cells; assay: Cytokine expression of anti-BCMA CAR T cells stimulated with BCMA-conjugated beads; format: cell-based, human; settings: 24 hours
# Experimental: Cryofrozen anti-BCMA CAR T cells, produced substantially as described in Example 1 and formulated at a 1:1 ratio of CD4+ and CD8+ T cells, were thawed.
# Twenty four hours after addition of BCMA-conjugated beads, the presence of TNF-α, IFNγ, and IL-2 in culture supernatants was assessed.
# In a further exemplary study, two different anti-BCMA CAR T cell compositions were generated from different donors, each containing T cells expressing the same anti-BCMA CAR. The cells were thawed and incubated with beads (diameter about 4.5 pm) from a 5 μg/mL or 200 μg/mL BCMA-conjugated bead composition generated as described in Example 1. […] Twenty four hours after addition of BCMA-conjugated beads, IL-2 production by the anti-BCMA CAR+ T cells was assessed in culture supernatants.
# The cells were gated on transduced, live CD3+ cells, and assessed by flow cytometry for intracellular cytokine accumulation of IFNγ and TNFα in CD4+ and CD8+ cells.
smiles,measurement,setting,value
"Cc1nc2cccc(N)c2c(=O)n1C1CCC(=O)NC1=O (centres unmarked) [Compound 1, 3-(5-amino-2-methyl-4-oxo-4H-quinazolin-3-yl)-piperidine-2,6-dione]",maximum tolerated dose (MTD),[1],4 mg
same,levels of IFNγ and IL-2,[2],increased levels
same,median fluorescence intensity of phosphorylated STAT5 (pSTAT5),[3],increased
"O=C1CC[C@H](N2Cc3c(OCc4ccc(CN5CCOCC5)cc4)cccc3C2=O)C(=O)N1 [Compound 2, (S)-3-[4-(4-morpholin-4-ylmethyl-benzyloxy)-1-oxo-1,3-dihydro-isoindol-2-yl]-piperidine-2,6-dione]",RL tumor cell line sensitivity to monotherapy,[4]; 0.01 μM or 0.1 μM doses,sensitive
same,cytolytic CAR T cell function against RL tumor cells,[4]; E:T 1:1,improved cytolytic CAR T cell function
same,cytolytic activity and cytokine production of chronically stimulated anti-BCMA CAR T cells,[5],increased cytolytic activity
same,cytolytic activity (tumor cell number over time),[6],improved
"Nc1cccc2c1CN(C1CCC(=O)NC1=O)C2=O (centres unmarked) [lenalidomide, 3-(4-amino-1-oxo-1,3-dihydro-2H-isoindol-2-yl)piperidine-2,6-dione]",expression level of Ikaros,"[7]; 0.5 μM or 5 μM, 18 hours, all conditions",decreased
same,proliferative capacity of T cells (CTV dye),"[7]; 5 μM, 200 μg BCMA beads 1:1, three days",increased
same,surface expression of CD25 in CD4+ and CD8+ T cells,[7]; BCMA-conjugated beads or anti-CD3 stimulation,further increased
same,secretion and/or accumulation of IL-10 in supernatants,[8],dose-dependently increased
same,IC50,[9],6.43 µM
same,CD25+ expression in CD4+ and CD8+ T cell populations,[10],increase
same,total number of CD3+ cells at day 7,[10]; cultures with anti-BCMA CAR+ T cells,increase
same,intracellular IFNγ and TNFα cytokine production,"[11]; 0.1 μM or 1 μM, 5, 50 or 200 μg/mL BCMA beads",increased
same,IL-2 production in culture supernatants,"[11]; 1 μM or 5 μM, 5 or 200 μg/mL BCMA beads, two donors",increased
same,"BCMA-induced CAR+ T cell cytokine production (TNF-α, IFNγ, IL-2 in supernatants)","[11]; 5 μM, 5 or 50 μg/mL BCMA beads",increased
